According to article PMC8048308, “Lysophosphatidic acid (LPA)-antibody (504B3) engagement detected by interferometry identifies off-target binding” (Lipids in Health and Disease, 2021):
Several values for one entry are separate records, joined by “and”; a condition that tells them apart may be missing. Equal values may be shown once.

Assays:
[1] = target: anti-LPA antibody, 504B3; test: free solution assay (FSA) measured in a compensated interferometric reader (CIR), equilibrium binding of lipids to antibody; design: species or system murine; details: 5 μg/ml 504B3, 0–50 nM ligand; for Kd: read-out: KD from FSA ± SD (95% CI); for Bmax (95% CI): one-site specific binding fit of the ΔRI signal
Description: The FSA configuration required refractive index (RI)-matched sample and reference solutions (Fig. 2). The binding affinity determinations were done in an end-point assay format. A ligand dilution series (100, 20, 4, 0.8, 0.16, 0.032, and 0 nM) was prepared in 0.01% BSA / 0.002% EtOH/Phosphate buffered saline (PBS; ThermoFisher Scientific, Waltham, MA, USA) from an intermediate stock of 200 nM LPs in 0.01% BSA / 0.002% EtOH/PBS. Lipids were prepared in fatty acid-free BSA solutions to approximate the biological conditions of LPs. Then, each LP dilution was combined with PBS-only to create the reference solution, or 10 μg/ml of the 504B3 antibody in PBS to create the corresponding binding sample solution (Fig. 2). Sample and reference solutions were kept at RT in a shaker for approximately 1-h to reach equilibrium and then analyzed using the CIR. The final concentrations were 5 μg/ml of antibody and 0–50 nM of ligand in a final buffer composition of 0.005% BSA / 0.001% EtOH/PBS. The details of the interferometer instrumentation have been described elsewhere. Briefly, it consists of a diode laser, two mirrors, one glass capillary, and a CCD camera. Droplet trains of sample-reference pairs were maintained at a constant flow rate in the capillary using a droplet generator (Mitos Dropix; Dolomite Microfluidics, (Royston, North Hertfordshire, UK)) and a syringe pump (Harvard Apparatus, Holliston, MA, USA). Together, the interferometer, a syringe pump (at a flow rate of 10 μL/min), and a droplet generator comprise the CIR. The RI change between the binding sample and reference was measured as a positional shift in backscattered interference fringes produced from the interaction between an expanded beam profile of the laser and a capillary filled with sample-reference solutions [24]. The shift of the backscattered fringe patterns, which is equivalent to molecular binding, was quantified using fast Fourier transform of selected fringes captured in a CCD array. The assay was measured sequentially, as reference, then sample for each concentration, as described previously. The concentration dependent signal was plotted using a non-linear regression, one-site specific binding (Y=Bmax*X/(KD + X) + D; where D is the offset value) isotherm fit in GraphPad Prism Version 8 to determine the equilibrium dissociation constants (KDs). […] The sample and reference solutions were prepared by mixing a ligand dilution series (0–100 nM) with an equivalent volume of the 504B3 solution (sample; 10 μg/ml dissolved in PBS, pH 7.4) or PBS only (reference) (Fig. 2).

[2] = target: LPA1; design: method as in PMID 30463988, PMID 32513900; details: CIR; cited from earlier work
[3] = 0.005% BSA / 0.001% EtOH/PBS, about 1 h at RT, one-site specific binding fit

Row | Compound | KD from FSA ± SD (95% CI) [1, 3] | Kd [1, 3] | Bmax (95% CI) [1] | native equilibrium binding (KD) to LPA1 [2] | specific binding signal (ΔRI) with 504B3 [1] | specific binding signal (ΔRI) with 504B3 ([1]; listed as S1P)
1 | CCCCCCCCCCCCCCCC(=O)OC[C@@H](O)COP(=O)(O)O [16:0 LPA, 1-palmitoyl-LPA (16:0)] | weaker affinity | > 30 nM | 0.39 (undetermined^a) | comparable binding |  | 
2 | CCCCCCCC/C=C\CCCCCCCC(=O)OC[C@@H](O)COP(=O)(O)O [18:1 LPA, 1-oleoyl-LPA (18:1)] |  | 3.7 ± 2.8 nM | 0.17 (0.14 to 0.25) | comparable binding |  | 
3 | CCCCCCCC/C=C\CCCCCCCC(=O)OC[C@@H](O)COP(=O)([O-])OCC[N+](C)(C)C [18:1 LPC, 1-oleoyl-lysophosphatidylcholine] |  | ~8.5 nM and 8.5 nM | 0.14 (0.12 to 0.16) |  |  | 
4 | CCCCCCCCCCCCC/C=C/[C@@H](O)[C@@H](N)COP(=O)(O)O [18:1 S1P, sphingosine 1-phosphate (d18:1)] |  |  |  |  | No specific binding signal | no signal
